For data set [1], the target named is T1, HDAC2 Human recombinant C-terminal FLAG-tag (Homo sapiens, UniProt Q92769).
T1 construct: FLAG (C); purchased BPS Bioscience 50052
The data set can be described thus: Measurement of HDAC2 enzyme inhibitory activity (HTRF). The format is biochemical. Particulars: recombinant HDAC2, H3K9ac peptide, 3 hours room temperature; read-out: HDAC2 IC50. In short, it runs like this:
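Compounds were tested at 8 points in 3-fold dilutions from 99 μM final (n=2) against FLAG-tagged HDAC2 with biotinylated H3K9ac (1-21) peptide (0.6 μM as added). The reaction ran 3 h at room temperature in Tris pH 8.0 buffer, then was stopped with SAHA. Deacetylated product was detected by HTRF (Eu-anti-H3K9me0 antibody, streptavidin-XL665) as the 665/615-620 nm ratio.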
In general terms: TR-FRET usually uses a lanthanide donor and a delayed reading to cut background.

Data set [2] is described as follows: Platelet toxicity test using human blood progenitor cells (WST). The data set is classed as cell-based. Particulars: human bone marrow CD34+ progenitor cells, maximum concentration 25 μM.

T1 sequence (Q92769 whole entry): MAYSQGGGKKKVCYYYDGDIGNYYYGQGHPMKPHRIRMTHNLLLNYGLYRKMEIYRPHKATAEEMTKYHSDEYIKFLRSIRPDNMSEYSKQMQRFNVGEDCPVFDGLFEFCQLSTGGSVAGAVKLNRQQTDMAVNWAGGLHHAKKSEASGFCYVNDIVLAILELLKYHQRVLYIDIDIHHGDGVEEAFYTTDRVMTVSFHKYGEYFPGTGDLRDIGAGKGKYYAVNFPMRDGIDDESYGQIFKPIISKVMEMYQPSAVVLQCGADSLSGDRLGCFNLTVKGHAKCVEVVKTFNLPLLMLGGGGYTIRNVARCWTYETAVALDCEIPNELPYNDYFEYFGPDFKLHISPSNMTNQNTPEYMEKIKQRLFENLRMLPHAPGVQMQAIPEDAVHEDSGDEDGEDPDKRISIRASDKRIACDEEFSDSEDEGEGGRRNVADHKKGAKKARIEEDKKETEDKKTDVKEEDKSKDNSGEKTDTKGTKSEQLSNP

In general, IC50 refers to the concentration needed to halve the response being measured. In the case of `C[C@H](F)COc1cnc(C(=O)Nc2cc(-c3ccc(F)nc3)ccc2N)cn1` (racemic) [Compound I-125], the half-maximal inhibitory concentration (IC50) in data set [1] was 0.18 µM. For the same compound, the IC50 at 48 h in data set [2] was > 25 µM.
The matching figures for `Cn1cc(-c2cnc(C(=O)Nc3nc(-c4cccs4)ccc3N)cn2)cn1` [Compound I-017]: 0.22 µM and > 25 µM.
The matching figures for `Cn1cc(-c2cnc(C(=O)Nc3nc(-n4cccc4)ccc3N)cn2)cn1` [Compound I-023]: 0.18 µM and > 25 µM.
On to `Cn1cc(-c2cnc(C(=O)Nc3cc(-c4ccc(F)nc4)ccc3N)cn2)cn1` [Compound I-080], for which the concentration for half-maximal inhibition (IC50) in data set [1] came to 0.048 µM. For the same compound, in data set [2], the half-maximal inhibitory concentration (IC50) at 48 h is > 25 µM.
On to `N#Cc1ccc(C(=O)Nc2cc(-c3ccc(F)nc3)ccc2N)nc1` [Compound I-092], for which the IC50 in data set [1] amounted to 0.25 µM. The IC50 at 48 h in data set [2] was > 25 µM.
The matching figures for `CCOc1cnc(C(=O)Nc2cc(-c3ccc(F)nc3)ccc2N)cn1` [Compound I-118]: 0.14 µM and > 25 µM.
With `Cn1cc(-c2ccc(N)c(NC(=O)c3cnc(C4CC4)cn3)c2)cn1` [Compound I-130], the IC50 in data set [1] is 0.14 µM. Further, in data set [2], the half-maximal inhibitory concentration (IC50) at 48 h is > 25 µM.

The values above are taken from patent US20230119479A1, “A HISTONE DEACETYLASE INHIBITOR HAVING A NITROGEN-CONTAINING AROMATIC HETEROCYCLYL GROUP” (SHIONOGI & CO., LTD., priority 2019, published 2023).
